# Results from patent US20240246942A1, “KINASE INHIBITORS FOR THE TREATMENT OF NEURODEGENERATIVE DISEASES” (priority 2020, published 2024).
# Legend:
# Test in all cases: biochemical
# [1] = biological target: T1, panel of 374 wild-type kinases (Homo sapiens, UniProt P35626); conditions: read-out: % Enzyme Activity (relative to DMSO controls), GRK3
# T1 construct: purchased Reaction Biology Corporation
# T1 sequence (P35626 1-688): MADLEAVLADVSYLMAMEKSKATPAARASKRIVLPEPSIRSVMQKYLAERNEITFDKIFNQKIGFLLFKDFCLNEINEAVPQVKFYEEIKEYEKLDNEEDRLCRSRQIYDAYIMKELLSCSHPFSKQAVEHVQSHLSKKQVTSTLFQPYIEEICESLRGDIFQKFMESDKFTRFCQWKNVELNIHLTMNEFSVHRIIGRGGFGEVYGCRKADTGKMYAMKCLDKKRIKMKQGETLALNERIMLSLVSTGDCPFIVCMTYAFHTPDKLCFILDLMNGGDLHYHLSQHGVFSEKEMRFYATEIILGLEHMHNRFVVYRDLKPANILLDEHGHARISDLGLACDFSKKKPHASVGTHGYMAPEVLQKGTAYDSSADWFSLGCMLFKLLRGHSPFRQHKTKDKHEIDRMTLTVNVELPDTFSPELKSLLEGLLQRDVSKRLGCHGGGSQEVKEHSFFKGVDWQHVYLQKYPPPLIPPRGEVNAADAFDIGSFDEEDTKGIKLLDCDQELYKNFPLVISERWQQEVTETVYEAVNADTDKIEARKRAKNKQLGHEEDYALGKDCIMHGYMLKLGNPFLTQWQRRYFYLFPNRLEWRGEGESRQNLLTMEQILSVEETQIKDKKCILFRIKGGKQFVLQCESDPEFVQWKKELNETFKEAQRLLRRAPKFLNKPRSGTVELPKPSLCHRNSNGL
# [2] = biological target: T2, panel of 374 wild-type kinases (Homo sapiens, UniProt P08581); conditions: read-out: % Enzyme Activity (relative to DMSO controls), c-MET
# T2 construct: purchased Reaction Biology Corporation
# T2 sequence (P08581 25-1390): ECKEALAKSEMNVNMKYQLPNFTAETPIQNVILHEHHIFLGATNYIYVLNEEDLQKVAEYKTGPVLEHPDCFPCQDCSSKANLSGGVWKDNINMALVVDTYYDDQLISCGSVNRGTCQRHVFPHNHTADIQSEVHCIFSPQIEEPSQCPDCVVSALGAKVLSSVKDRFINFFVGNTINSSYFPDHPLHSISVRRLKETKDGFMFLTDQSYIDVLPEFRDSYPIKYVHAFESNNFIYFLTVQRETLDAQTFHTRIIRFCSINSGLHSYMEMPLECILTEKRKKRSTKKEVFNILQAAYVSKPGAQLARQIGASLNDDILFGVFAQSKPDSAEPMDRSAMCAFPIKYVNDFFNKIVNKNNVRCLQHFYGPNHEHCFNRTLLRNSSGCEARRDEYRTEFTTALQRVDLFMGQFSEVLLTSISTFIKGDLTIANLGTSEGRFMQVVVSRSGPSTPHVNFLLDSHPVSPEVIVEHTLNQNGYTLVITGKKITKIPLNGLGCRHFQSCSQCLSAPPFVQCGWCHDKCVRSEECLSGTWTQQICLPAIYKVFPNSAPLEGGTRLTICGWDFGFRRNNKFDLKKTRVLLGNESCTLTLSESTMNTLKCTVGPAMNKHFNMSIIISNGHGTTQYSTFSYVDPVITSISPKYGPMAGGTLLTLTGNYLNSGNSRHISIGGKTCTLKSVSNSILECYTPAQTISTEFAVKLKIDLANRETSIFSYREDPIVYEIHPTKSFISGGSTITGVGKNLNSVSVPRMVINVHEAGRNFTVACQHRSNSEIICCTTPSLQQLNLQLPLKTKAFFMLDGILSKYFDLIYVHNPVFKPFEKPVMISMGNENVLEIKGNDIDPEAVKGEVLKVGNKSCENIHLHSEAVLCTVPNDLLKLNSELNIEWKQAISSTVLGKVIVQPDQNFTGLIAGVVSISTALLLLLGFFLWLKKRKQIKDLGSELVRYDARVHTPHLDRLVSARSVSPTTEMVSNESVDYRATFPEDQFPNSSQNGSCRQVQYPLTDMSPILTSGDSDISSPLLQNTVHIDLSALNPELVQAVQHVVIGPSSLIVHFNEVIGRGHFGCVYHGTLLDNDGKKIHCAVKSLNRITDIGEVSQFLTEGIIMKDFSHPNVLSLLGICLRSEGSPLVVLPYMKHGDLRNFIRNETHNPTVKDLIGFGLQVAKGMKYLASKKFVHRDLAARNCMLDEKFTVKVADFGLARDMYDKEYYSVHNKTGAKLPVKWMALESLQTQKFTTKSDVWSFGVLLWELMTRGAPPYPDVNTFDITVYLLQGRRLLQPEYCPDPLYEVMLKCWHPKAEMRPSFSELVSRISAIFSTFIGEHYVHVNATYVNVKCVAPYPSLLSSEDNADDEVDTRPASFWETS
# [3] = biological target: T3, panel of 374 wild-type kinases (Homo sapiens, UniProt O96017); conditions: read-out: % Enzyme Activity (relative to DMSO controls), CHK2
# T3 construct: purchased Reaction Biology Corporation
# T3 sequence (O96017 whole entry): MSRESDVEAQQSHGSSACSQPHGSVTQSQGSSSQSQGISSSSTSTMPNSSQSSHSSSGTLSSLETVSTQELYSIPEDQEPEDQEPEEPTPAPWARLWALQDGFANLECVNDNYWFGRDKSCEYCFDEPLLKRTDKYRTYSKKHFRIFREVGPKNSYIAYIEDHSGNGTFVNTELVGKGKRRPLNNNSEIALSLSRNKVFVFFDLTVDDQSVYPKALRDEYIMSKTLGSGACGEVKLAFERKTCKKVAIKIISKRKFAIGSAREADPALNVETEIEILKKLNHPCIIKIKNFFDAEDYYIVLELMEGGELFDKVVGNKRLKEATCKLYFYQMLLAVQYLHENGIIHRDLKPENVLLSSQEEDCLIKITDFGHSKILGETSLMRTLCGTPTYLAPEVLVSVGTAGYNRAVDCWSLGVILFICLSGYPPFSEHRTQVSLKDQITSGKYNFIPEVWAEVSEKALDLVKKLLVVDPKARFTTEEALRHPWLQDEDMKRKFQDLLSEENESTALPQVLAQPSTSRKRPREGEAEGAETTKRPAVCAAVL
# [4] = biological target: T4, panel of 374 wild-type kinases (Homo sapiens, UniProt O95819); conditions: read-out: % Enzyme Activity (relative to DMSO controls), HGK/MAP4K4
# T4 construct: purchased Reaction Biology Corporation
# [5] = biological target: T5, panel of 374 wild-type kinases (Homo sapiens, UniProt Q96GD4); conditions: read-out: % Enzyme Activity (relative to DMSO controls), Aurora B
# T5 construct: purchased Reaction Biology Corporation
# T5 sequence (Q96GD4 whole entry): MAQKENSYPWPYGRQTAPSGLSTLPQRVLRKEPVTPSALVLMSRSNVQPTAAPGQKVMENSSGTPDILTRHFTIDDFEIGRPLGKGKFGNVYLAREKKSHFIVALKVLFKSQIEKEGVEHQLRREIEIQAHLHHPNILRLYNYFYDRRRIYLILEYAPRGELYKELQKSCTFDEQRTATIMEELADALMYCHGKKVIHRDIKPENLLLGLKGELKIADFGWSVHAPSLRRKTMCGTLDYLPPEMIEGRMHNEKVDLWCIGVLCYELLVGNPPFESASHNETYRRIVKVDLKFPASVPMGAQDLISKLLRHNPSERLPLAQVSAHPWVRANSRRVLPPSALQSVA
# [6] = biological target: T6, panel of 374 wild-type kinases (Homo sapiens, UniProt Q13464); conditions: read-out: % Enzyme Activity (relative to DMSO controls), kinase ROCK1
# T6 construct: purchased Reaction Biology Corporation
# T6 sequence (Q13464 whole entry): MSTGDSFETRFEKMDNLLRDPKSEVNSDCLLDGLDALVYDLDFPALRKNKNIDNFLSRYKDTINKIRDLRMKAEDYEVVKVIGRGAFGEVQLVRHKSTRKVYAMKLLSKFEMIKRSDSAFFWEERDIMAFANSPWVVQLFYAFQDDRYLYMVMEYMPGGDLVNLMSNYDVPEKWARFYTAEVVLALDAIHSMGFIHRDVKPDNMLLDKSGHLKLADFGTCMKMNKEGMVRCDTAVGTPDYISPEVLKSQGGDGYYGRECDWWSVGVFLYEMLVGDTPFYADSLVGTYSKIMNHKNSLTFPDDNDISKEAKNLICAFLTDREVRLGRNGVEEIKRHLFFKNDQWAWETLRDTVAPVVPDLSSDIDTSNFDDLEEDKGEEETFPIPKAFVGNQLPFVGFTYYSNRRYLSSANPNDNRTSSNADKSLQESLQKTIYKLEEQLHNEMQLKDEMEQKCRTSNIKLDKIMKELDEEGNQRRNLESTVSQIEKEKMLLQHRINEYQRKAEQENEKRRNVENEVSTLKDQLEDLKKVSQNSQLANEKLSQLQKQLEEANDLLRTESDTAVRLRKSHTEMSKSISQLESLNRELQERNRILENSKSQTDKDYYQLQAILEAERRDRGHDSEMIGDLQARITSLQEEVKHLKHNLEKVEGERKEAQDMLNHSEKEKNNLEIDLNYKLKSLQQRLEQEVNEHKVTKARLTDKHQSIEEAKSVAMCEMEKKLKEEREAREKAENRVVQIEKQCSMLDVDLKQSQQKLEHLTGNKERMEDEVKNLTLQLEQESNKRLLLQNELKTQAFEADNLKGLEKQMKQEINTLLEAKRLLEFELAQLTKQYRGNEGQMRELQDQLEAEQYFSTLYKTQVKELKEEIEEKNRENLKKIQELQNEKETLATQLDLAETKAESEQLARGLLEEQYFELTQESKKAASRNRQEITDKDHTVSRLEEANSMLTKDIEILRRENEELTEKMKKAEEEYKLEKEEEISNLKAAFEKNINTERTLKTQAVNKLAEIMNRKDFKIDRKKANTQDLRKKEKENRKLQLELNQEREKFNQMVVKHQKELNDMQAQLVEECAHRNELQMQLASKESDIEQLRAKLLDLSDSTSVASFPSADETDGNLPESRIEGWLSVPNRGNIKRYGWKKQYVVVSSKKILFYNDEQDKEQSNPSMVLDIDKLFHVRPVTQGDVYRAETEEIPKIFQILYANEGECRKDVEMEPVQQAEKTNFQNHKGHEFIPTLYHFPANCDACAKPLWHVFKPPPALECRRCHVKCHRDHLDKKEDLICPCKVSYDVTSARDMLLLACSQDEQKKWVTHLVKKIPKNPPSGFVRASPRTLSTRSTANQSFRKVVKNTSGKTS
# [7] = biological target: T7, panel of 374 wild-type kinases (Homo sapiens, UniProt Q86Y07); conditions: read-out: % Enzyme Activity (relative to DMSO controls), kinase VRK2
# T7 construct: purchased Reaction Biology Corporation
# T7 sequence (Q86Y07 whole entry): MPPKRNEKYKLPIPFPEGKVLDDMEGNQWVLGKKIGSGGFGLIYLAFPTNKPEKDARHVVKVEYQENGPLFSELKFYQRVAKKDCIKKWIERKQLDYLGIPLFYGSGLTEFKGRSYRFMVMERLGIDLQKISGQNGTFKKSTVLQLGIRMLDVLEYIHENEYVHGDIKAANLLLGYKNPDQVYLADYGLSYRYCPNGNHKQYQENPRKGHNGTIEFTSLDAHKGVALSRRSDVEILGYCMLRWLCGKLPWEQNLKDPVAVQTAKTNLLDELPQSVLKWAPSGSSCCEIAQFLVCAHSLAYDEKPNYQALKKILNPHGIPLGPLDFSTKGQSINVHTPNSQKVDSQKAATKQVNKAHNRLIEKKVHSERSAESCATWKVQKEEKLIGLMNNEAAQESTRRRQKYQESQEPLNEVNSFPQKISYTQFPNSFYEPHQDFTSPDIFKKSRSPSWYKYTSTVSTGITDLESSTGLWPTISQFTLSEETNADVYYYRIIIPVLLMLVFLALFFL
# [8] = biological target: T8, panel of 374 wild-type kinases (Homo sapiens, UniProt P15735); conditions: read-out: % Enzyme Activity (relative to DMSO controls), kinase PHKg2
# T8 construct: purchased Reaction Biology Corporation
# T8 sequence (P15735 1-406): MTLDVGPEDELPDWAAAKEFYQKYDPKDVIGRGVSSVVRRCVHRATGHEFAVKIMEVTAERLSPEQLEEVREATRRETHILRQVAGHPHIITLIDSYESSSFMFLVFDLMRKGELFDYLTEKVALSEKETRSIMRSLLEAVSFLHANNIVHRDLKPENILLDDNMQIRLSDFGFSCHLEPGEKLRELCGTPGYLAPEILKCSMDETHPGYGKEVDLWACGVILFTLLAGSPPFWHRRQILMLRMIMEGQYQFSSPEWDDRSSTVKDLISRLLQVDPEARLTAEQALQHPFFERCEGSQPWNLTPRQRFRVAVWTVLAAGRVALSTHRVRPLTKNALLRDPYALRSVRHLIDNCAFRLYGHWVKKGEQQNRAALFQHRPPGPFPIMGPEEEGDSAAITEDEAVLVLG
# [9] = biological target: T9, panel of 374 wild-type kinases (Homo sapiens, UniProt Q9H4B4); conditions: read-out: % Enzyme Activity (relative to DMSO controls), kinase PLK3
# T9 construct: purchased Reaction Biology Corporation
# T9 sequence (Q9H4B4 whole entry): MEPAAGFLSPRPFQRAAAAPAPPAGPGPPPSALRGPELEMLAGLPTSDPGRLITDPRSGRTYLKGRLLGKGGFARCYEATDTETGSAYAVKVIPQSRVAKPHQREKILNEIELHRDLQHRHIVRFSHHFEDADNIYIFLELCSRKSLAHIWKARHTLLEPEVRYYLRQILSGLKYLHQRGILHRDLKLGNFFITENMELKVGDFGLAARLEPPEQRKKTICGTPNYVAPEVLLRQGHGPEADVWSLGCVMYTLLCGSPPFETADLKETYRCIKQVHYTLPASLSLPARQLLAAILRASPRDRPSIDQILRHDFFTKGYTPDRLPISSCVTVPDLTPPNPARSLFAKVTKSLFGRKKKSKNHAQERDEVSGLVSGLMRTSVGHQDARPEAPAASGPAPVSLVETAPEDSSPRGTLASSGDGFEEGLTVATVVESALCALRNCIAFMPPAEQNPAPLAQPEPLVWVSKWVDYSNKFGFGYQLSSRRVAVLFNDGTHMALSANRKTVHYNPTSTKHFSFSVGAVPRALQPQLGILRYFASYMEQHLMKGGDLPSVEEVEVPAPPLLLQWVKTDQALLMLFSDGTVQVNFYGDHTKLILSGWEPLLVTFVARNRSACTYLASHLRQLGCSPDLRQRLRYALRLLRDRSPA
# [10] = biological target: T10, panel of 374 wild-type kinases (Homo sapiens, UniProt P07947); conditions: read-out: % Enzyme Activity (relative to DMSO controls), kinase YES/YES1
# T10 construct: purchased Reaction Biology Corporation
# [11] = biological target: T11, panel of 374 wild-type kinases (Homo sapiens, UniProt Q86YV6); conditions: read-out: % Enzyme Activity (relative to DMSO controls), MYLK4
# T11 construct: purchased Reaction Biology Corporation
# T11 sequence (Q86YV6 1-388): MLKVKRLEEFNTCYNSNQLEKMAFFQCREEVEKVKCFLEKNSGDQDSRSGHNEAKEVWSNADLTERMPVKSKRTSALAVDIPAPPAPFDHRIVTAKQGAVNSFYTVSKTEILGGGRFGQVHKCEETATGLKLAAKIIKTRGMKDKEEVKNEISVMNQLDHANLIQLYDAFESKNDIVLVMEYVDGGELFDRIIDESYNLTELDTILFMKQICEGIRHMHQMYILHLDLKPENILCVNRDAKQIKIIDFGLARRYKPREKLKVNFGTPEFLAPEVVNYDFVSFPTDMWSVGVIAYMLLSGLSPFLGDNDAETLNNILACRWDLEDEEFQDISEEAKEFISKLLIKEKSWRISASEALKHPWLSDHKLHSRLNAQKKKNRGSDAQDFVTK
# [12] = biological target: T12, panel of 374 wild-type kinases (Homo sapiens, UniProt Q15746); conditions: read-out: % Enzyme Activity (relative to DMSO controls), MLCK/MYLK
# T12 construct: purchased Reaction Biology Corporation
SMILES,remaining activity at 5 µM [1],remaining activity at 5 µM [2],remaining activity at 5 µM [3],remaining activity at 5 µM [4],remaining activity at 5 µM [5],remaining activity at 5 µM [6],remaining activity at 5 µM [7],remaining activity at 5 µM [8],remaining activity at 5 µM [9],remaining activity at 5 µM [10],remaining activity at 5 µM [11],remaining activity at 5 µM [12],other results
"O=C(Nc1cnn(-c2csc(C(=O)NC3COC3)c2)c1)Nc1ccccc1Cl [Compound 17, 4-(4-(3-(2-chlorophenyl)ureido)-1H-pyrazol-1-yl)-N-(oxetan-3-yl)thiophene-2-carboxamide]",102%,102%,97.8%,81.1%,93%,109%,103%,101%,96.1%,96.5%,85.2%,97.5%,–
"O=C(Nc1cnn(-c2csc(C(=O)NC3COC3)c2)c1)Nc1c(F)cccc1Cl [Compound 25, 4-(4-(3-(2-chloro-6-fluorophenyl)ureido)-1H-pyrazol-1-yl)-N-(oxetan-3-yl)thiophene-2-carboxamide]",101%,86.1%,91.5%,90.4%,69.8%,78.2%,102%,131%,96%,91%,91.7%,95.9%,–
"Cc1sc(C(=O)NC2COC2)cc1-n1cc(NC(=O)Nc2c(F)cccc2Cl)cn1 [Compound 27, 4-(4-(3-(2-chloro-6-fluorophenyl)ureido)-1H-pyrazol-1-yl)-5-methyl-N-(oxetan-3-yl)thiophene-2-carboxamide]",–,–,–,–,–,–,–,–,–,–,–,–,remaining activity at 10 µM ([1]; 10 uM): 107%; remaining activity at 10 µM ([2]; 10 uM): 77%; remaining activity at 10 µM ([3]; 10 uM): 95.2%; remaining activity at 10 µM ([4]; 10 uM): 93.4%; remaining activity at 10 µM ([5]; 10 uM): 96.4%; remaining activity at 10 µM ([6]; 10 uM): 96.8%; remaining activity at 10 µM ([7]; 10 uM): 102%; remaining activity at 10 µM ([8]; 10 uM): 88.5%; remaining activity at 10 µM ([9]; 10 uM): 102%; remaining activity at 10 µM ([10]; 10 uM): 81.4%; remaining activity at 10 µM ([11]; 10 uM): 109%; remaining activity at 10 µM ([12]; 10 uM): 103%
